Tests used:
[1] = target: JAK2 (Homo sapiens (Human), UniProt O60674); assay: LANCE Kinase Assay (JAK2_IC50 selectivity assay); assay type: biochemical
From the text: In LANCE® Kinase Assay (JAK2_IC50 selectivity assay): JAK2 (Invitrogen, Cat. No PV4288), ATP (Sigma, Cat. No. A7699-1G), DMSO (Sigma, Cat. No. D2650), DTT (Sigma, Cat. No. 43815), LANCE Ultra ULight™-JAK-1 peptide (Perkin Elmer, Cat. No. TRF0121), LANCE Eu-W1024 Anti-phosphotyrosine (PT66) (Perkin Elmer, Cat. No. AD0069), LANCE™ Detection Buffer (Perkin Elmer, Cat. No. CR97-100), Tofacitinib (PharmaBlock Sciences(Nanjing), Inc, Cat. No. PBN2011586-01); Equipments: Envision (Perkin Elmer), Bravo (Agilent); Consumables: 384 well Intermediate plate (Greiner, Cat. No. 781280), 384 well assay plate (Perkin Elmer, Cat. No. 6007299),
The assay involves two steps, the enzymatic step and the detection step with HTRF reagents. Step 1: During the enzymatic step the substrate-biotin is incubated with the kinase of interest. ATP is added to start the reaction. Step 2: The detection reagent catches the phosphorylated substrate and the resulting TR-FRET is proportional to the phosphorylation level.
Compound Preparation: Dissolve the test compounds into 30 mM DMSO solution and put them in nitrogen hood at room temperature for long term storage; Dilute the 30 mM compound in DMSO with 3-fold factor, total 11 concentrations; Aspirate 1 μl compound and then dilute them in 25 folds with kinase buffer. Mix well and balance 30 minutes at room temperature.
Kinase Reaction: Transfer 2.5 μl compounds in kinase buffer (4×) into assay plate by Agilent Bravo. Spin the plate; Transfer 5 μl enzyme mixture into the assay plate by using Eppendorf electronic multi-channel pipette. Spin the plate; Incubate the assay plate for 20 minutes at room temperature (23° C.); Add 2.5 μl kinase buffer with ATP into the assay plate by using Multidrop. Spin and seal the plate; Incubate the assay plate for 90 minutes at room temperature (23° C.).
Stop Reaction: Transfer 10 μl detection reagent (2 nM LANCE Eu-W1024 Anti-phosphotyrosine) into the assay plate by using Eppendorf electronic multi-channel pipette. Spin and seal the plate; Incubate the assay plate at room temperature (23° C.) for 60 minutes.
Detection and Read: The excitation wavelength is 340 nm, the primary emission wavelength is 615 nm and the secondary emission wavelength is 665 nm (for Cryptate and Ulight, respectively). Read the plate with EnVision to get the readout of both wavelengths; Calculate the ratio of 665 nm/615 nm.
IC50 estimates were obtained using the software XLfit (IDBS Inc.).

[2] = system: transgenic Drosophila expressing LRRK2-G2019S in dopamine (DA) neurons; assay: Drosophila model survival rate; assay type: in vivo; conditions: significance compared to DMSO negative control
From the text: (§1) Drosophila model was used to evaluate Examples in vivo. The GAL4/UAS system developed by Andrea Brand and Norbert Perrimon in 1993 [45] was used to generate transgenic Drosophila expressing LRRK2-G2019S in dopamine (DA) neurons. The system has two parts: the GAL4 gene, encoding the yeast transcription activator protein GAL4, and the UAS (Upstream Activation Sequence), an enhancer to which GAL4 specifically binds to activate gene transcription. This system takes advantage of the yeast GAL4 transcription factor, which binds specifically to the UAS.
To express LRRK2-G2019S in DA neurons, the UAS-Wild Type-LRRK2 and UAS-G2019S-LRRK2 transgenes were combined with the dopa decarboxylase (ddc)-GAL4 driver. The 10 μM GW5074 was used for the positive control. […]
Twenty newly enclosed female Drosophila were collected and placed in a food vial. The Drosophila were moved to fresh food vials every other day at which time deaths were scored.
Based on Drosophila′ survival curve, the 50% survival time parameter indicates the time at which half of the Drosophila remained alive and was used to compare the survival ratio between the different groups. The mean 50% survival times and the standard errors were calculated based on 4 separate experiments for each group. The data were analysed by GraphPad PRISM® 6.0 software.

[3] = system: transgenic Drosophila expressing LRRK2-G2019S in dopamine (DA) neurons; assay: Drosophila model climbing assay (negative geotaxis); assay type: in vivo; conditions: significance compared to DMSO negative control
From the text: as §1
To express LRRK2-G2019S in DA neurons, the UAS-Wild Type-LRRK2 and UAS-G2019S-LRRK2 transgenes were combined with the dopa decarboxylase (ddc)-GAL4 driver. The 10 μM GW5074 was used for the positive control. The negative control group was DMSO control (all compounds were dissolved in DMSO with 1:1000 dillution). The Drosophila were maintained at 25° C. on a 12 hour light-12 hour dark cycle. GW5074 was used as positive control.
The negative geotaxis assay was used to analyse the locomotors ability of the Drosophila. Twenty Drosophila from each vial and 4 vials for each group were performed the climbing assay weekly.
The tested Drosophila were transferred into a vertical plastic tube (15 cm tall, 1.5 cm in diameter). After 30 min of rest at room temperature, the Drosophila were gently tapped to the bottom of the tube, the numbers of Drosophila that could climb to or above the test line within 10 seconds were counted and the percent were calculated.
The climbing abilities were analysed based on three separate experiments for each vial and the data were analysed by GraphPad PRISM® 6.0 software.

[4] = target: LRRK2 (phospho S935) in Drosophila brain lysates (Homo sapiens (Human), UniProt Q5S007, G2019S); assay: Drosophila model kinase assays at week 6; assay type: in vivo; conditions: ratio of phosphate LRRK2 protein to Flag protein, significance compared to DMSO negative control
Chain of LRRK2 (phospho S935) in Drosophila brain lysates (Q5S007 whole entry G2019S): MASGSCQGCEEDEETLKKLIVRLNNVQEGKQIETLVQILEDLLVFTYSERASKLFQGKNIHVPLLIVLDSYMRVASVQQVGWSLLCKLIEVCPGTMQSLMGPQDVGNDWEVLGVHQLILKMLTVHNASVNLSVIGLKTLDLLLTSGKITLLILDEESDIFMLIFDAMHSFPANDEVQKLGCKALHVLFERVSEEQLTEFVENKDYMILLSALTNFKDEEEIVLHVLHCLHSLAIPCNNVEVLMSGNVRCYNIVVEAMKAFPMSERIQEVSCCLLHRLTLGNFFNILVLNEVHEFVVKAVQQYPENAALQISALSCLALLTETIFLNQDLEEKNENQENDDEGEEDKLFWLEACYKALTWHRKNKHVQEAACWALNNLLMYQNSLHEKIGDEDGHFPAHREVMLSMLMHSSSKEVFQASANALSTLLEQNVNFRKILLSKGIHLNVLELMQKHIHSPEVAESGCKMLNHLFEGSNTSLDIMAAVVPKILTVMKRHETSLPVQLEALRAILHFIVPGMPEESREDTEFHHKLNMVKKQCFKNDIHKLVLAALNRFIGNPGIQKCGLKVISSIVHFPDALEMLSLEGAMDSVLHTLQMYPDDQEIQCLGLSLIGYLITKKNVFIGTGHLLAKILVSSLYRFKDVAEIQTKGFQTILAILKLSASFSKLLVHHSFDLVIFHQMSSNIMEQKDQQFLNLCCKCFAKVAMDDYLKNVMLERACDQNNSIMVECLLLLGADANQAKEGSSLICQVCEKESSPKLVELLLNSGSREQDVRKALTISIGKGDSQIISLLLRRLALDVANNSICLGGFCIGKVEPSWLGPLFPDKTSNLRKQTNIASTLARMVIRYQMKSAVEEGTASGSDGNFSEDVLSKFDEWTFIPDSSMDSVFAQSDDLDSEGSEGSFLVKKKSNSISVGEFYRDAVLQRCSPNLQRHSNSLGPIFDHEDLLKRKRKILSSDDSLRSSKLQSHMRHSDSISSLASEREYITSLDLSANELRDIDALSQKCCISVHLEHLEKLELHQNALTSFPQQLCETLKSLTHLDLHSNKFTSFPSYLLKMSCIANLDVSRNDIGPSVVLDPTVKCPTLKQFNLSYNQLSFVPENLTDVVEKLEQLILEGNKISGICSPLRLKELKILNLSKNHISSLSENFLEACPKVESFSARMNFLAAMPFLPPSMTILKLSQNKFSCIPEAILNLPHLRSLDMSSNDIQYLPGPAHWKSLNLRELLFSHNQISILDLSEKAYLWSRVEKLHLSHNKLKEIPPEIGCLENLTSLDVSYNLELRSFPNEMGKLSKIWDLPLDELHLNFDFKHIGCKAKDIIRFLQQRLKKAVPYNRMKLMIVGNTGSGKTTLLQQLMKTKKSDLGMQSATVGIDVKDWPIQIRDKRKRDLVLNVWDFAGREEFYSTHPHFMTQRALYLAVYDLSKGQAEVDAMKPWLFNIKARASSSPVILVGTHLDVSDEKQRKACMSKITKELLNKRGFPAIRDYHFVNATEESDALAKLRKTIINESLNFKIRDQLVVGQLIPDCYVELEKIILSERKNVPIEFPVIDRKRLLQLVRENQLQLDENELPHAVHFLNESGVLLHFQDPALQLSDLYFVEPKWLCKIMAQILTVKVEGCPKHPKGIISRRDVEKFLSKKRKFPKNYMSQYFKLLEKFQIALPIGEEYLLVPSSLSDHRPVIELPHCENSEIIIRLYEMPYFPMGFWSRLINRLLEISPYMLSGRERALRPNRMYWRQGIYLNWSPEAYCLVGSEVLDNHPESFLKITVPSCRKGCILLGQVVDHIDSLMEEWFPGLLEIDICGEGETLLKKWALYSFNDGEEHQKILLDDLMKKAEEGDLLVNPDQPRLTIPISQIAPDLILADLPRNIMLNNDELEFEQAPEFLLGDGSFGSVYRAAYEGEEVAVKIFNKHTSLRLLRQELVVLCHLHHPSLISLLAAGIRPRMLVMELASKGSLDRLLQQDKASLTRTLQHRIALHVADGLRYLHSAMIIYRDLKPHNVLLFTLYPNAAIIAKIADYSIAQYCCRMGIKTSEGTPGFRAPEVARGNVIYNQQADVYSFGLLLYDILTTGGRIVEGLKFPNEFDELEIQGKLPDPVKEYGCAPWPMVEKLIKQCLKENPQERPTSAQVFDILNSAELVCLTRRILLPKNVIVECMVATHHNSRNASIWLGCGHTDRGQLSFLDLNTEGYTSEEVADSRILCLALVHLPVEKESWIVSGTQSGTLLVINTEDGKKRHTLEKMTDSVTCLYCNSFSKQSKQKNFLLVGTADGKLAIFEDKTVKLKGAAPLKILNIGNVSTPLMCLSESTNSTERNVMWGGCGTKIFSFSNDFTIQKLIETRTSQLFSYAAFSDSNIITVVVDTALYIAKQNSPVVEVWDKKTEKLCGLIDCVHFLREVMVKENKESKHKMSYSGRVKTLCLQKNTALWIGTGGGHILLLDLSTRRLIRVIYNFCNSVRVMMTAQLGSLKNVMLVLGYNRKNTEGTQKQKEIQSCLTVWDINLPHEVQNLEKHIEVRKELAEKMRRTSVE
Experimental: The 10 μM GW5074 was used for the positive control. The negative control group was DMSO control (all compounds were dissolved in DMSO with 1:1000 dillution). The Drosophila were maintained at 25° C. on a 12 hour light-12 hour dark cycle. GW5074 was used as positive control [47].
The adult Drosophila heads were homogenized on ice, and the brain lysates were performed kinase reaction in kinase reaction buffer with ATP and DTT.
Then the lysates were electrophoresed through 12% SDS-PAGE gels and transferred to PVDF membranes (Millipore). The membranes were blocked in TBST with 5% skimmed milk for 1 hour at room temperature and then incubated in anti-LRRK2 pSer935 antibody (Abcam, ab133450) and anti-Flag antibody overnight at 4° C.
The proteins were detected with HRP-conjugated secondary antibodies and ECL detection reagents. The optical density of immunoblotting was analysed by Image J software and the ratio of phosphate LRRK2 protein compare to Flag protein were calculated and the data were analysed by GraphPad PRISM® 6.0 software.

Chain of JAK2 (O60674 whole entry): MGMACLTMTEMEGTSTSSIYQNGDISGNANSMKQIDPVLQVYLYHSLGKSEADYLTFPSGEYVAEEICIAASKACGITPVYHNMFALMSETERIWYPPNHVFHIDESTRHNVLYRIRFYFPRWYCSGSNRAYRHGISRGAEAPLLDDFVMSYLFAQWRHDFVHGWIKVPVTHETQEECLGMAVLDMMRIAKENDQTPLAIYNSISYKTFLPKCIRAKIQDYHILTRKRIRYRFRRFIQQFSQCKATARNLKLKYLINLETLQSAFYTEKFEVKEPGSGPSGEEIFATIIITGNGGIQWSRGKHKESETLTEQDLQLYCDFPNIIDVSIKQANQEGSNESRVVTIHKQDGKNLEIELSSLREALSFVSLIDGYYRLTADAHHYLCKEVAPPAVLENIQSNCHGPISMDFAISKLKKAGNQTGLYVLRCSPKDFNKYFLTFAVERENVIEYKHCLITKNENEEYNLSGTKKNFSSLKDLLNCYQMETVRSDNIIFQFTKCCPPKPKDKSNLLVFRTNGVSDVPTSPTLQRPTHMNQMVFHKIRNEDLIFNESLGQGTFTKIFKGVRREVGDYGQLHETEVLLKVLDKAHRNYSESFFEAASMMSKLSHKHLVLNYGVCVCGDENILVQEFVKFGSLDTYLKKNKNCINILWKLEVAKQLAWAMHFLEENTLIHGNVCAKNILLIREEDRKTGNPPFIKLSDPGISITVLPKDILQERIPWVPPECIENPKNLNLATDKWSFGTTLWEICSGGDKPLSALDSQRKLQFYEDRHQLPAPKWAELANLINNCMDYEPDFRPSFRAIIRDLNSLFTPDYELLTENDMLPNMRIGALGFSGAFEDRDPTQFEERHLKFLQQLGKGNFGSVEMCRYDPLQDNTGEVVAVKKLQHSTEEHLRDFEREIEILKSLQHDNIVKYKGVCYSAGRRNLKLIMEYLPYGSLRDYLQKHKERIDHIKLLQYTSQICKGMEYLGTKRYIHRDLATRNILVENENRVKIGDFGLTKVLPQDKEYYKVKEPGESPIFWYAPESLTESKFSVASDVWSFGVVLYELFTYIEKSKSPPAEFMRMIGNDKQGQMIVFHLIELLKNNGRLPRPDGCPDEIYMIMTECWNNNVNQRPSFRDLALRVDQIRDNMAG

Compound | IC50 [1] | Survival Rate [2] | Climbing Assay 3 weeks ([3]; 3 weeks) | Climbing Assay 4 weeks ([3]; 4 weeks) | Climbing Assay 5 weeks ([3]; 5 weeks) | Climbing Assay 6 weeks ([3]; 6 weeks) | Kinase Assays [4]
c1cc2[nH]nc3c2c(n1)N(C1CCC1)CCC3 [Example 22, 6-cyclobutyl-6,7,8,9-tetrahydro-2H-1,2,5,6-tetraazabenzo[cd]azulene] | 8.4 µM |  |  |  |  |  | 
c1cc2[nH]nc3c2c(n1)N(C1CCOCC1)CCC3 [Example 29, 6-(tetrahydro-2H-pyran-4-yl)-6,7,8,9-tetrahydro-2H-1,2,5,6-tetraazabenzo[cd]azulene] |  | * (P < 0.05, compared to DMSO negative control) | * (P < 0.05, compared to DMSO negative control) | ** (P < 0.01, compared to DMSO negative control) | * (P < 0.05, compared to DMSO negative control) | * (P < 0.05, compared to DMSO negative control) | * (P < 0.05, compared to DMSO negative control)
CC(C)n1ncc2c1CN(C1CCN(C)CC1)c1nccc3[nH]nc-2c13 [Example 68] | 6.3 µM |  |  |  |  |  | 
